Patent US20250019369A1, “N-(4-aminocyclohexyl)pyrimidine-4-carboxamide derivatives as CD38 inhibitors” (Cerevance, Inc., priority 2021, published 2025)
Where a name gives a salt, the structure may show the parent alone. Read-outs that look alike come from different tables or passages of the source.

How the values were obtained:
[1] = Tissue binding assay, plasma (equilibrium dialysis); type: in vitro ADME; conditions: dialysis 4 hours at 37° C.
Experimental: [The source words this procedure for another target and reports this target under the same test.] (§1) Buffer preparation. A basic solution was prepared by dissolving 14.2 g/L Na2HPO4 and 8.77 g/L NaCl in deionized H2O. An acidic solution was prepared by dissolving 15.6 g/L NaH2PO4·2H2O and 8.77 g/L NaCl in deionized H2O. Using the acidic solution, the basic solution was then titrated to pH 7.4±0.1 and stored at 4° C. for up to 1 month. The stop solution was 100% CH3CN containing 200 ng/mL tolbutamide, 200 ng/mL labetalol and 50 ng/mL metformin.
(§2) Test method. Dialysis membrane strips were soaked in ultra-pure water at room temperature for ˜1 hour. Each membrane strip containing 2 membranes was separated and soaked in 20:80 EtOH/H2O (v/v) for ˜20 min, after which they were ready for use or were stored in the solution at 2-8° C. for up to 1 month. Prior to the experiment, the membrane was rinsed and soaked for 20 min in ultra-pure water. On the day of experiment, brain homogenate was thawed in a water bath at room temperature and incubated at 37° C. for 10 min before use. Test and control compounds were dissolved in DMSO to achieve 10 mM stock solutions. DMSO working solutions were prepared at 400 μM by diluting 10 μL of stock solution. To prepare the time zero (t=0) samples to be used for recovery determination, 50 μL aliquots of loading matrix were transferred in triplicate to the sample collection plate. The samples were immediately matched with opposite blank buffer to obtain a final volume of 100 μL of 1:1 matrix/dialysis buffer (v/v) in each well. 500 μL of stop solution were added to these t=0 samples. They were then stored at 2-8° C. pending further processes along with other post-dialysis samples. To load the dialysis device, an aliquot of 150 μL of the loading matrix was transferred to the donor side of each dialysis well in triplicate, and 150 μL of the dialysis buffer was loaded to the receiver side of the well. The dialysis plate was placed in a humidified incubator at 37° C. with 5% CO2 on a shaking platform that rotated slowly (about 100 rpm) for 4 hours. At the end of the dialysis, aliquots of 50 μL of samples were taken from both the buffer side and the matrix side of the dialysis device. These samples were transferred into new 96-well plates. Each sample was mixed with an equal volume of opposite blank matrix (buffer or matrix) to reach a final volume of 100 μL of 1:1 matrix/dialysis buffer (v/v) in each well. All samples were further processed by adding 500 μL of stop solution containing internal standards. The mixture was vortexed and centrifuged at 4000 rpm for about 20 min. An aliquot of 100 μL of supernatant of all the samples was then removed for LC-MS/MS analysis. The single blank samples were prepared by transferring 50 μL of blank matrix to a 96-well plate and adding 50 μL of blank PBS buffer to each well. Then the matrix-matched samples were further processed by adding 500 μL of stop solution containing internal standards, following the same sample processing method as the dialysis samples.
(§3) Data analysis. The % undiluted unbound, % undiluted bound and % recovery were calculated using the following equations:
(§4) % Undiluted Unbound=100*1/D/((1/(F/T)−1)+1/D)
(§5) % Undiluted Bound=100−% Undiluted Unbound
(§6) where F is the analyte concentration or peak area ratio of analyte/internal standard on the buffer (receiver) side of the membrane; T is the analyte concentration or peak area ratio of analyte/internal standard on the matrix (donor) side of the membrane; To is the analyte concentration or the peak area ratio of analyte/internal standard in the loading matrix sample at time zero; and D is the dilution factor determined as 4 in this assay.

[2] = Tissue binding assay, brain homogenate (equilibrium dialysis); type: in vitro ADME; conditions: dialysis 4 hours at 37° C., dilution factor 4
Experimental: as §1, §2, §3, §4, §5, §6

[3] = PK brain permeability in C57BL/6 mice after single oral gavage; type: in vivo; conditions: male, C57BL/6, mouse, 2 hours post dose; for concentration at 2 h: po, 10 mg/kg; for Kpu,u (unbound brain/plasma partition coefficient) at 2 h: oral 10 mg/kg, read-out: Kpu,u (unbound partitioning coefficient, Cb,u/Cp,u)
Experimental: The distribution of compounds into the brain in vivo was determined in C57BL/6 mice following single oral (po) gavage administration.
Test compounds were formulated at 1 mg/mL in 0.5% HPMC E4 M, 0.2% Tween 80 in water to achieve solutions or homogenous suspensions suitable for po administration.
Formulations were administered to 3 male C57BL/6 mice at a volume of 10 mL/kg resulting in a dose level of 10 mg/kg. Blood samples were collected at 1 and 2 hours post dose into tubes containing K2EDTA as anticoagulant, processed to plasma and stored at −60° C. or lower until LC-MS/MS analysis. Brains were harvested 2 hours post dose, rinsed with saline, dried, weighed and homogenised under ice cold conditions. Brain homogenates were stored at −60° C. or lower until LC-MS/MS analysis.
Dose formulation concentrations were verified using a LC-UV or LC-MS/MS method. Test compound concentrations in plasma and brain homogenate were quantitatively determined using LC-MS/MS methods developed in individual matrices against calibration curves with QC samples included and acceptance criteria as per CRO SOPs. Concentrations in brain homogenate were corrected for the dilution factor used to prepare the homogenate to give concentrations in whole brain tissue.
Plasma and brain concentration versus time data were reported and plotted in excel. The brain to plasma ratio at 2 hours post dose was calculated for each animal using the following equation:
Brain:plasma=brain concentration (ng/g) at 2 h/plasma concentration (ng/mL) at 2 h
As only unbound test compound is available to exert an effect on the target, unbound plasma (Cp,u) and unbound brain (Cb,u) concentrations were calculated by correcting the total concentrations for the unbound fraction in plasma (fu,p) or brain (fu,b) determined from in vitro plasma protein or brain tissue binding assays using the following equations: […]
The unbound partitioning coefficient (Kpu,u) was then calculated based on the ratio of Cb,u to Cp,u using the following equation: […]
In these studies, mice were orally administrated a 10 mg/kg dose and sacrificed 2 hours post dose and tissue samples (brain homogenate and plasma) were analyzed subsequently as described above.

[4] = biological target: Recombinant mouse CD38 (Mus musculus (Mouse), UniProt P56528); test: Mouse CD38 hydrolase assay (fluorescence, ε-NAD substrate); type: biochemical; conditions: recombinant mouse CD38 0.4 nM, 12 μM ε-NAD, 30 min preincubation at 25° C., pH 7.4
Sequence of Recombinant mouse CD38 (P56528 whole entry): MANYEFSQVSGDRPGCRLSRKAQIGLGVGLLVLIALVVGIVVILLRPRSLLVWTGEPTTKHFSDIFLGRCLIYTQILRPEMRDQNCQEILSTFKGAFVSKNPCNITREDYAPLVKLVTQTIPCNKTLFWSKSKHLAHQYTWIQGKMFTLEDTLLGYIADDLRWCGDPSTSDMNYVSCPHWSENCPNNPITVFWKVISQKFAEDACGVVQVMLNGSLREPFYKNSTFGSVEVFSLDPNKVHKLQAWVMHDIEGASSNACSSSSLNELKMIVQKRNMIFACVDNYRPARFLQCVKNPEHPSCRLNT
Experimental: (§7) The ability of test compounds to inhibit mouse CD38 hydrolase activity was measured in a fluorescence-based assay using non-physiological NAD^+ substrate analogue 1,N^6-etheno NAD^+ (ε-NAD). Recombinant mouse CD38 (0.4 nM) was preincubated with test compounds in 384-well black microplates for 30 min at 25° C. in PBS (—Ca^2+/Mg^2+) containing 0.005% BSA (pH 7.4). CD38 hydrolase activity was initiated by addition of 12 μM ε-NAD, which yields the fluorescent product 1,N^6-etheno ADP-ribose. Formation of fluorescent product was followed using ClarioStar Plus (BMG) microplate reader by reading fluorescence (excitation λ=300 nm; emission λ=410 nm) at two time points, one immediately after substrate addition (t=0) and one at 6 min (t=6).
(§8) Data was analysed by subtracting the values detected at t=0 from t=6 to correct for variation in baseline fluorescence, and fluorescence values were converted to percent inhibition using the average of high signal (CD38 and ε-NAD) and low signal (CD38 and ε-NAD in the presence of a tool CD38 inhibitor) control wells. IC50 values were determined from a 10-point, half log concentration response curve with a four-parameter logistic equation.

[5] = biological target: Recombinant human CD38 (Homo sapiens (Human), UniProt P28907); test: Human CD38 hydrolase assay (fluorescence, ε-NAD substrate); type: biochemical; conditions: recombinant human CD38 0.8 nM, 4 μM ε-NAD, 30 min preincubation at 25° C., pH 7.4
Sequence of Recombinant human CD38 (P28907 whole entry): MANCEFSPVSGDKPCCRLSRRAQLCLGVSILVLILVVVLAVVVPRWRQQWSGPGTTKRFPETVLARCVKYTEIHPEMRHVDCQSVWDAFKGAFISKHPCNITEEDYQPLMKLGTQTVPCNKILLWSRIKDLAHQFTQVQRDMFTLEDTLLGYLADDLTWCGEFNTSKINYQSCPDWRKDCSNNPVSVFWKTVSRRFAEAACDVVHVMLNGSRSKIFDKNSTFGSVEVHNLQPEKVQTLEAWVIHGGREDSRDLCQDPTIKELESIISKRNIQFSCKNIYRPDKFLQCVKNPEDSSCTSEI
Experimental: as §7, with “inhibit human” for “inhibit mouse”, “Recombinant human” for “Recombinant mouse”, “CD38 (0.8” for “CD38 (0.4”, “of 4” for “of 12”, “at 10” for “at 6”, “min (t=10).” for “min (t=6).”
as §8, with “t=10” for “t=6”, “fluorescence. Fluorescence” for “fluorescence, and fluorescence”

[6] = brain, read-out: total brain conc.
[7] = brain, total corrected for unbound fraction in brain, read-out: free brain conc.
[8] = plasma, read-out: total plasma conc.
[9] = plasma, total corrected for unbound fraction in plasma, read-out: free plasma conc.

Row | SMILES | Mouse plasma (% unbound) [1] [% unbound] | Mouse brain (% unbound) [2] [% unbound] | concentration at 2 h [3, 6] [nM] | concentration at 2 h [3, 7] [nM] | Kpu,u (unbound brain/plasma partition coefficient) at 2 h [3] | concentration at 2 h [3, 8] [nM] | concentration at 2 h [3, 9] [nM] | IC50 [4] [nM] | IC50 [5] [nM]
1 | Cc1cc(C(=O)N[C@H]2CC[C@H](OC(F)F)CC2)nc(-n2ccnc2)n1 [Example 17, N-((1r,4r)-4-(difluoromethoxy)cyclohexyl)-2-(1H-imidazol-1-yl)-6-methyl-pyrimidine-4-carboxamide, reference compound] | 6.9 | 13.6 | 77 | 10 | 0.08 | 1680 | 115 |  | 
2 | Cc1cc(C(=O)N[C@H]2CC[C@](C)(O)CC2)nc(-n2ccnc2)n1 [Example 18, N-((1r,4r)-4-hydroxy-4-methylcyclohexyl)-2-(1H-imidazol-1-yl)-6-methyl-pyrimidine-4-carboxamide, reference compound] | 25.3 | 28.4 | 430 | 122 | 0.03 | 13000 | 3290 |  | 
3 | Cc1cc(C(=O)N[C@H]2CC[C@H](N)CC2)nc(-n2ccnc2)n1 [Example 27, N-((1r,4r)-4-aminocyclohexyl)-2-(1H-imidazol-1-yl)-6-methyl-pyrimidine-4-carboxamide Formate] |  |  |  |  |  |  |  | ≤ 40 | ≤ 1000
